Assay results: patent US20160338992A1, “COMPOSITE COMPRISING 3'-HYDROXYGENISTEIN AND USE FOR INHIBITION OF MELANOGENESIS” (BIO-JOURDENESS INTERNATIONAL GROUP CO., LTD., priority 2015, published 2016)
pIC50: −log10 of the molar value. Each block holds one molecule with its values, some of them ahead of it.

Assays:
[1] = tested on: melanin cells; details: 30 μM to 60 μM; cited from earlier work
[2] = tested on: tyrosinase; assay: Effect on tyrosinase activity (L-DOPA to dopachrome, absorbance at 475 nm); assay type: biochemical; details: for effect on tyrosinase activity (FIG. 2): 10-40 μM
Experimental: Tyrosinase plays an important role on melanogenesis. Thus the effect of 3′-hydroxygenistein on tyrosinase is detected. First dissolve 1 μL 3′-hydroxygenistein in DMSO (dimethyl sulfoxide) and mixed with 5 μL tyrosinase in a 94 μL, 50 mM PBS (pH 6.8). Add 0.9 mL, 2.5 mM L-DOPA (dissolved in 50 mM PBS, pH 6.8) into the mixture and react at 25° C. for 10 minutes.

[3] = tested on: B16 melanoma 4A5 cells; assay: Melanin content in IBMX-stimulated cells; assay type: cell-based, mouse; details: 400 μM IBMX, 2 days; for effect on melanogenesis (FIG. 4): 10 μM and 20 μM
Experimental: In this experiment, 3-isobutyl-1-methylxanthine (IBMX) is used as a melanogenic-stimulating agent while genistein and danazol with inhibitory effect on melanogenesis are used as positive controls. The B 16 melanoma 4A5 cells are cultured in DMEM containing 10% (v/v) fetal bovine serum (FBS) in a 5% CO2 humidified incubator at 37° C. Then seed cells in a 24-well plate with proper density. After one day, the cells are treated with 5 μM, 10 μM, and 20 μM 3′-hydroxygenistein respectively in the presence of 400 μM IBMX and cultured for 2 days. Then collect and wash the cells with PBS (Phosphate Buffered Saline) buffer twice. The cell pellets are dissolved in lysis buffer containing 20 mM trisodium phosphate (pH6.8) and 1% Triton X-100. After centrifugation at 15,000×g for 15 minutes, melanin pellets are dissolved in 1N NaOH containing 20% DMSO at 95° C. for 1 hour. Use spectrophotometer ((U-5100; Hitachi, Japan) to detect absorbance of melanin at 490 nm. The melanin content is expressed as percentage of the control group (IBMX group).

[4] = tested on: tyrosinase; details: cited from earlier work
[5] = tested on: B16 melanoma 4A5 cells; assay: Cell viability by MTT assay; assay type: cell-based, mouse; details: 48 hours
Experimental: In order to confirm a non-cytotoxic concentration range of 3′-hydroxygenistein, MTT and crystal violet staining assays are used to detect cell viability of 3′-hydroxygenistein. A mouse melanoma cell line (B16 melanoma 4A5 obtained from bioresource Collection and Research Center, Food Industry Research and Development Institute) is cultured in DMEM (Dulbecco's Modified Eagle Medium) containing 10% (v/v) fetal bovine serum (FBS) in a 5% CO2 humidified incubator for 24 hours. The B16 melanoma 4A5 cells are treated with 3′-hydroxygenistein for 48 hours. Then remove the culture medium, add 1 mg/mL MTT dissolved in PBS and incubate for 2 hours. Next remove MTT solution and add DMSO. At last, use spectrophotometer ((U-5100; Hitachi, Japan) to detect absorbance of dissolved formazan crystals at 475 nm. The cell viability is expressed as percentage of control (% of control).

effect on tyrosinase activity (FIG. 2) [2]: no tyrosinase inhibitory activity
Structure (SMILES): O=c1c(-c2ccc(O)cc2)coc2cc(O)cc(O)c12 [genistein]
effect on melanin production (literature) [1]: induce melanin cells to produce more melanin
effect on melanogenesis (FIG. 4) [3]: no inhibitory effect on melanogenesis

Structure (SMILES): O=c1c(-c2ccc(O)cc2)coc2cc(O)c(O)cc12 [6-OHDe, 6,7,4′-trihrdroxyisoflavone]
tyrosinase inhibitory activity, times stronger than glycitein ([4]; Taiwanese Pat. No. 1312686): 25 times
tyrosinase inhibition activity (literature) [4]: have tyrosinase inhibition activity

Structure (SMILES): O=c1c(-c2ccc(O)cc2)coc2c(O)c(O)cc(O)c12 [8-hydroxygenistein, 5,7,8,4′-tetrahydroxyisoflavone]
tyrosinase inhibitory activity, times stronger than genistein ([4]; Taiwanese Pat. No. 1312686): 90 times

pIC50 ([2]; L-DOPA substrate, 25° C., 10 minutes, pH 6.8, read-out: half-inhibitory concentration (IC50) in inhibiting tyrosinase): 4.80
tyrosinase inhibitory activity, times stronger than kojic acid ([2]; ratio of IC50 values, kojic acid as the standard): 11 times
Structure (SMILES): O=c1c(-c2ccc(O)c(O)c2)coc2cc(O)cc(O)c12 [3′-hydroxygenistein]
effect on tyrosinase activity (FIG. 2) [2]: inhibits tyrosinase activity in a dose-dependent manner
effect on melanogenesis (FIG. 4) [3]: show inhibition of melanogenesis
melanin content, percentage of the control group (IBMX group) ([3]; 20 μM): 50.5%
inhibitory effect on melanogenesis compared with danazol [3]: better than danazol
cytotoxicity (cell survival rate, FIG. 3) ([5]; 40 μM): shows cytotoxicity
cytotoxicity (cell survival rate, FIG. 3) ([5]; concentration between 10 μM and 20 μM): no cytotoxicity

Structure (SMILES): O=c1c(-c2ccc(O)cc2)coc2cc(O)ccc12 [daidzein]
tyrosinase inhibition activity (literature) [4]: doesn't have such activity

Structure (SMILES): O=c1c(-c2ccc(O)cc2)coc2c(O)c(O)ccc12 [8-OHDe, 7,8,4′-trihrdroxyisoflavone]
tyrosinase inhibitory activity, times stronger than daidzein ([4]; Taiwanese Pat. No. 1312686): 30 times
tyrosinase inhibition activity (literature) [4]: have tyrosinase inhibition activity
